Holding throughout (test): relative viability (nuclei count vs DMSO), 5 days (fraction); higher = more cells survive
Compound in assay [1]: CCn1c(-c2nonc2N)nc2cnc(Oc3cccc(NC(=O)c4ccc(OCCN5CCOCC5)cc4)c3)cc21 + Nc1nc2[nH]cc(CCc3ccc(C(=O)N[C@@H](CCC(=O)O)C(=O)O)cc3)c2c(=O)[nH]1 [Pemetrexed] (partner 0.2 µM)
A digest of the protocol: (§1)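 Lung cancer cell lines in 1536-well plates got either a single drug or a fixed anchor-drug dose together with five library-drug doses (not always all listed) in √10 steps, by pin tool, on the day after seeding. Nuclei were counted after 5 days, and relative viability is the treated-to-vehicle ratio of nuclei counts. Values are medians of duplicate plates.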

Compound in the assay “Mirin + Navitoclax”: N=C1NC(=O)/C(=C/c2ccc(O)cc2)S1 [Mirin] + CC1(C)CCC(c2ccc(Cl)cc2)=C(CN2CCN(c3ccc(C(=O)NS(=O)(=O)c4ccc(N[C@H](CCN5CCOCC5)CSc5ccccc5)c(S(=O)(=O)C(F)(F)F)c4)cc3)CC2)C1 [Navitoclax] (partner 0.5 µM)
A digest of the protocol:
as §1

Compound in assay [2]: CCC1=CN=CN=C1N2CCN(CC2)CC3=NC4=C(N3)C=C(C=C4)C(F)(F)F + Cc1nc(NC(=O)N2CCC[C@H]2C(N)=O)sc1-c1ccnc(C(C)(C)C(F)(F)F)c1 [Alpelisib] (partner 2 µM)
A digest of the protocol:
as §1

Compound in assay [3]: CCn1c(-c2nonc2N)nc2cnc(Oc3cccc(NC(=O)c4ccc(OCCN5CCOCC5)cc4)c3)cc21 + C[C@@H](Oc1cc(-c2cnn(C3CCNCC3)c2)cnc1N)c1c(Cl)ccc(F)c1Cl [Crizotinib] (partner 1 µM)
A digest of the protocol: as §1

Turning to UMC-11, the relative viability in assay [1] (first compound 0.04 µM) turned out to be 0.813; in assay [1] (first compound 0.1265 µM) it was 0.596; in assay [1] (first compound 0.4 µM), 0.613; in assay [1] (first compound 1.265 µM) it was 0.283; in assay [1] (first compound 4 µM) it was 0.231; with Mirin + Navitoclax (first compound 0.25 µM), 0.324. For the same cell line, the relative viability with Mirin + Navitoclax (first compound 0.7906 µM) was found to be 0.312; with Mirin + Navitoclax (first compound 2.5 µM) it was 0.283; with Mirin + Navitoclax (first compound 7.906 µM), 0.276; with Mirin + Navitoclax (first compound 25 µM), 0.209; in assay [2] (first compound 0.04 µM) it was 0.973; in assay [2] (first compound 0.1265 µM), 1.07. Besides, the relative viability in assay [2] (first compound 0.4 µM) came to 0.959; in assay [2] (first compound 1.265 µM), 0.906; in assay [2] (first compound 4 µM) it was 0.871; in assay [3] (first compound 0.04 µM), 0.924; in assay [3] (first compound 0.1265 µM), 0.743; in assay [3] (first compound 0.4 µM) it was 0.577. Further, the relative viability was 0.135 in assay [3] (first compound 1.265 µM) and 0.121 in assay [3] (first compound 4 µM).

The record behind these values is the supplement of paper PMC10307832.
